Measurements taken from US6911432B2, “Drugs, foods or drinks with the use of algae-derived physiologically active substances” (priority 1997, dated 2005).

Assays:
[1] = system: lipid peroxide radical production; assay: inhibition of lipid peroxide radical production (tert-butyl hydroperoxide, bacterial growth readout); assay type: cell-based, Staphylococcus aureus 3A; design: key to growth of the bacterium (activity of inhibiting lipid peroxide radical production): + represents the sample in which the growth of the bacterium was observed; −represents the sample in which the growth of the bacterium was not observed
Procedure: Staphylococcus aureus 3A (National Collection Of Type Culture, NCTC 8319) was inoculated into 5 ml of brain heart infusion medium (manufactured by Difco, 0037-17-8) and cultured at 37° C. overnight. The bacterial cells were collected by centrifugation, washed with phosphate buffered saline 3 times and then suspended in phosphate buffered saline at a concentration of 1×10^7 colony forming units/ml. A mixture of 100 μl of the cell suspension, 100 μl of an aqueous sample solution, 100 μl of aqueous 1 mg/ml methemoglobin (manufactured by Sigma M9250) solution, 600 μl of phosphated buffered saline and 100 μl of aqueous 50 mM tert-butyl hydroperoxide (manufactured by Katayama Kagaku, 03-4990) solution were reacted at 37° C. for 30 minutes. To the reaction mixture was added 1 ml of 2×NMP medium [prepared by dissolving 8 g of nutrient broth (manufactured by Difco, 0003-01-6), 5 g of trypton (manufactured by Difco, 0123-17-3), 5 g of NaCl, 10 g of mannitol (manufactured by Nacalai Tesque, 213-03) and 0.035 g of phenol red (manufactured by Nacalai Tesque, 268-07) in distilled water to make the volume up to 500 ml. The pH was adjusted to 7.5 with NaOH and then the mixture was sterilized by filtration] to stop the reaction. The resultant mixture was diluted every 3-folds with NMP medium (prepared by diluting 2×NMP medium 2-folds with sterilized water) to prepare 12 serial dilutions and 160 μl of each dilution was placed in each well of a 96-well microtiter plate. The plate was incubated at 37° C. overnight.
In Table 14, + represents the sample in which the growth of the bacterium was observed, and −represents the sample in which the growth of the bacterium was not observed. The concentration shown in the uppermost line of the table is that of the sample in the reaction mixture in which the sample was reacted with tert-butyl hydroperoxide and the bacterial cells at 37° C. for 30 minutes.

[2] = system: RAW 264.7 cells; assay: NO production induced by LPS, NO2- concentration in medium; assay type: cell-based, mouse; settings: RAW 264.7; 10 μl of 5000 to 50 μM solution per 500 μl well; 12 hours
Procedure: (1) RAW 264.7 cells (ATCC TIB 71) were suspended in phenol red-free Dulbecco's modified Eagle's medium containing 10% fetal bovine serum (manufactured by Gibco) and 2 mM L-glutamine (manufactured by Life Technologies Oriental, 25030-149) at a concentration of 3×10^5 cells/ml, and 500 μl portions thereof were seeded to respective wells of a 48-well microtiter plate and incubated at 37° C. for 12 hours in the presence of 5% CO2. To each well were added 10 μl of 25 μg/ml lipopolysaccharide (LPS, manufactured by Sigma, L-2012) and 10 μl of aqueous 5000, 1500, 500, 150 or 50 μM agarobiose or neoagarobiose (manufactured by Sigma, G4410) solution, and the plate was incubated for additional 12 hours. Then, concentration of NO2^− produced by oxidation of NO in the medium was measured. As control groups, a group to which LPS was not added and a group to which agarobiose or neoagarobiose was not added were provided.
After incubating as described above, 100 μl of 4% Greece reagent (manufactured by Sigma, G4410) was added to 100 μl of the medium, and the mixture was allowed to stand for 15 minutes at room temperature. Then, the absorbance at 490 nm was measured. NO2^− concentration in the medium was calculated with reference to a calibration curve prepared by using NaNO2 at given concentrations dissolved in the same medium as that described above. All the measurements were carried out in triplicate.
(2) A suspension of 5 g of commercially available agar (Ina agar type S-7, manufactured by Ina Shokuhin Kogyo) in 45 ml of 0.1 N HCl was treated at 95° C. for 13 minutes. After cooling to room temperature, the suspension was neutralized with NaOH and filtered through 0.22 μm MILLEX-GP filter (manufactured by Milipore, SLGPR25LS). […] Namely, 10 μl of 25 μg/ml LPS and 10 μl of a 20-fold dilution of the sample mentioned above were added to wells of a 48 well microtiter plate containing RAW264.7 cells which had been incubated in the wells. The measurement was carried out with the culture medium. As control groups, a group to which LPS was not added, a group to which a sample was not added and a group to which 2.5 mM citric acid was added were provided. All the measurement were carried out in duplicate.

[3] = system: HL-60 cells; assay: apoptosis-inducing assay, cell morphology under an optical microscope; assay type: cell-based, human
Procedure: Human promyelocytic leukemia cell HL-60 (ATCC CCL-240) was incubated at 37° C. in RPMI 1640 medium (manufactured by Gibco) supplemented with 10% of fetal bovine serum (JRH Bioscience) which had been treated at 56° C. for 30 minutes, and suspended in the same medium at a concentration of 500 cells/90 μl. Each 90 μl portion of the suspension was distributed into each well of a 96 well plate (manufactured by Falcon). To the suspension in each well was added 10 μl of the above-mentioned acid decomposition solution, a 10-fold dilution of the solution or water, and incubated with 5% CO2 at 37° C. After 24 hour and 48 hour from the initiation of the incubation, the cell morphology was observed under an optical microscope. Then, according to the MTT method described in “Apoptosis Jikken Protocol” (Syuzyun-sha, Tanuma, Seiichi ed., pp. 156 (1994)), 5 mg/ml of 3-(4,5-dimethylthiazole-2-yl)-2,5-diphenyltetrazolium bromide (manufactured by Sigma) and 10 μl of phosphate buffered saline solution were added to the culture and the incubation was continued for additional 4 hours. Then, 100 μl of 2-propanol containing 0.04 N hydrochloric acid was added to the culture, and the mixture was thoroughly stirred. An absorbance at 590 nm was measured and the number of viable cells was calculated from the absorbance measured for each of the wells, which was compared each other.
Each elution peak was fractionated, collected, evaporated to dryness under reduced pressure and then dissolved in 300 μl of water. Each fraction was sterilized by filtration and its 10 μl portion was placed in a well of a 96 well microtiter plate. Then, 90 μl of RPMI 1640 medium (manufactured by Nissui) containing 10% fetal bovine serum (manufactured by Gibco) and 5,000 HL-60 cells (ATCC CCL-240) was added thereto, followed by incubation at 37° C. for 48 hours with 5% CO2. The cell morphology was observed under an optical microscope. Then, 5 mg/ml 3-(4,5-dimethylthiazole-2-yl)-2,5-diphenyltetrazolium bromide and 10 μl of phosphate buffered saline solution were added thereto and the incubation was continued for additional 4 hours. To the culture was added 100 μl of 2-propanol containing 0.04 N hydrochloric acid and the resultant mixture was thoroughly stirred. The absorbance at 590 nm was measured to determine a cell proliferation rate.

[4] = 0.1 mM sample in the reaction mixture
[5] = 1 mM sample in the reaction mixture

SMILES	activity of inhibiting lipid peroxide radical production (in words) [1]	growth of the bacterium (activity of inhibiting lipid peroxide radical production) [1, 4]	growth of the bacterium (activity of inhibiting lipid peroxide radical production) [1, 5]	inhibition of NO production induced by LPS (in words) [2]	apoptosis corpuscles under an optical microscope ([3]; 78 μg/ml)	apoptosis-inducing activity (apoptosis corpuscles, in words) ([3]; preparations and fractions)
OC[C@H]1O[C@@H](O[C@H]2[C@H]3OC[C@@H]2O[C@@H](O[C@H]2[C@@H](O)[C@@H](CO)O[C@@H](O[C@H]4[C@H]5OC[C@@H]4OC(O)[C@H]5O)[C@@H]2O)[C@H]3O)[C@H](O)[C@@H](O)[C@H]1O (stereo partly drawn) [Agarotetraose, agarotetraose]	strong activity	−	+			
OC[C@H]1O[C@@H](O[C@H]2[C@H]3OC[C@@H]2OC(O)[C@H]3O)[C@H](O)[C@@H](O)[C@H]1O (mixture of isomers) [Agarobiose, agarobiose]	strong activity	+	+	dose-dependently inhibited	apoptosis corpuscles were observed	had both activities
